The values that follow come from patent US20220009914A1, “Analogs of Nitrofuran Antibiotics to Combat Resistance” (The Trustees of Indiana University, priority 2020, published 2022).

For one assay, the target named is T1, E. coli GroEL (Escherichia coli, UniProt P0A6F5).
T1 construct: made in house; host or cells: NEB 5-alpha E. coli
Kind of assay: GroEL-mediated ATPase assay. Type of assay: biochemical. As for the experimental part:
Evaluating compounds for inhibition in the GroEL-mediated ATPase assay. All compounds were evaluated for inhibiting E. coli GroEL-mediated ATPase activity as per our previously reported procedure although employing only GroEL in solution and not containing GroES or denatured MDH. Evaluating compounds for inhibition in the GroEL-mediated ATPase assay.
Reagent preparation: For this assay, four primary reagent solutions were prepared: 1) GroEL protein solution; 2) ATP initiation solution; 3) EDTA quench solution; 4) malachite green reporter solution. The GroEL protein solution consisted of 100 nM of GroEL in folding buffer (50 mM Tris-HCl, pH 7.4, 50 mM KCl, 10 mM MgCl2, and 1 mM DTT), which was prepared immediately prior to dispensing into the assay plates. For the ATP initiation solution, ATP solid was diluted into folding buffer to a final concentration of 2 mM. Quench solution contained 300 mM EDTA (pH 8.0). The malachite green reporter solution contained 0.034% w/v malachite green, 1.04% w/v ammonium molybdate, 1% Tween-20, and 1 M HCl dissolved in H2O.
Assay Protocol: First, 10 μL aliquots of the GroEL protein solution were dispensed into clear, flat-bottom 384-well polystyrene plates. […] After incubating for 45 minutes at 37° C., 10 μL of the EDTA quench solution was added to quench the reaction cycle. Then, 60 μL of the malachite green reporter solution was added and the plates were incubated at room temperature for 10 min. The absorbance of the malachite green-phosphate complex was measured at 600 nm using a Molecular Devices SpectraMax Plus384 microplate reader. A second set of baseline control plates were prepared analogously, but without GroEL protein solution, to correct for possible interference from compound absorbance or turbidity. […] Results presented represent the averages of IC50 values obtained from at least four replicates.
Evaluating analogs for inhibiting GroEL-mediated ATPase activity. […] Thus, we further tested analogs in a well-established GroEL ATPase assay that employed malachite green to monitor inorganic phosphate liberated as GroEL hydrolyzed ATP. Briefly, a solution of GroEL was incubated with test compounds (8-point, 3-fold dilution series) and the assay was initiated by addition of ATP. After incubating for 45 minutes, the ATPase reaction was quenched by the addition of EDTA. Malachite green was then added to the assay to bind and detect free phosphates in solution (absorbance detection at k=600 nm). If analogs inhibited ATPase activity, then there would be no free phosphates for malachite green to bind, leading to minimal absorbance at 600 nm.

The target of a further assay is T2, E. coli GroEL/ES (Escherichia coli, UniProt P0A6F5).
T2 construct: made in house; host or cells: GroEL in NEB 5-alpha E. coli; GroES in E. coli BL21 (DE3)
T2 sequence (P0A6F5 2-548): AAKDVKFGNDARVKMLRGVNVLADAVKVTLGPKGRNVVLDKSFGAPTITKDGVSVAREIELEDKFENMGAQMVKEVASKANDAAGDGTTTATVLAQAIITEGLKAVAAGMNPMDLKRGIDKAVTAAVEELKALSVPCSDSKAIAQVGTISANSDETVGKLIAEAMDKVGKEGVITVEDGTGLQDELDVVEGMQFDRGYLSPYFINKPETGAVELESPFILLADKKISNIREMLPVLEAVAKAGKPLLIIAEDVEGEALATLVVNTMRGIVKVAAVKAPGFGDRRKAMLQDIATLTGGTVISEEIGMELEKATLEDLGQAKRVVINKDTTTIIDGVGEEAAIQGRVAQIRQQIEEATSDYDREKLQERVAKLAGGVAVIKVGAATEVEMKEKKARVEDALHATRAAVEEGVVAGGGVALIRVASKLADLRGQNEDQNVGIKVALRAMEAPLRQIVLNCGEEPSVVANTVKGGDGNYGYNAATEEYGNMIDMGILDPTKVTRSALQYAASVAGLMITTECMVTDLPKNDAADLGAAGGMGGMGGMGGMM
Kind of assay: GroEL/ES-mediated dMDH refolding assay. Type of assay: biochemical. As for the experimental part: Evaluating compounds for inhibition in the GroEL/ES-mediated dMDH refolding assay. All compounds were evaluated for inhibiting E. coli GroEL/ES-mediated refolding of the denatured MDH reporter enzyme. Reagent preparation: For these assays, four primary reagent stocks were prepared: 1) GroEL/ES-dMDH binary complex stock; 2) ATP initiation stock; 3) EDTA quench stock; 4) MDH enzymatic assay stock. Denatured MDH (dMDH) was prepared by 2-fold dilution of MDH (5 mg/ml, soluble pig heart MDH from Roche, product #10127248001) with denaturant buffer (7 M guanidine-HCl, 200 mM Tris, pH 7.4, and 50 mM DTT). MDH was completely denatured by incubating at room temperature for >45 min. The binary complex solutions were prepared by slowly adding the dMDH stock to a stirring stock with GroEL and GroES in folding buffer (50 mM Tris-HCl, pH 7.4, 50 mM KCl, 10 mM MgC2, and 1 mM DTT). […] For the ATP initiation stock, ATP solid was diluted into folding buffer to a final concentration of 2.5 mM. Quench solution contained 600 mM EDTA (pH 8.0). The MDH enzymatic assay stock consisted of 20 mM sodium mesoxalate and 1.6 mM NADH in reaction buffer (50 mM Tris-HCl, pH 7.4, 50 mM KCl, and 1 mM DTT).
Assay Protocol: First, 30 μL aliquots of the GroEL/ES-dMDH binary complex stocks were dispensed into clear, 384-well polystyrene plates. […] The chaperonin-mediated refolding cycles were initiated by addition of 20 μL of ATP stock (reagent concentrations during refolding cycle: 50 nM GroEL, 60 nM GroES, 12 nM dMDH, 1 mM ATP, and compounds of 100 μM to 46 nM, 3-fold dilution series) and the refolding reactions were incubated at 37° C. […] Next, the assay was quenched by addition of 10 μL of the EDTA stock to give a final concentration of 100 mM in the wells. […] A340 nm measurements were recorded at 0.5 minutes (start point) and at successive time points until the amount of NADH consumed reached ˜90% (end point, generally between 20-35 minutes).
Evaluating analogs for inhibiting GroEL/ES-mediated substrate refolding functions. […] We first evaluated all test compounds in our standard GroEL/ES-mediated refolding assays that employ either malate dehydrogenase (MDH) or rhodanese (Rho) as the denatured substrate reporter enzymes. When denatured, these enzymes are efficiently folded by GroEL/ES in the absence of inhibitors, and thus act as reporters to determine the degree of inhibition against the bacterial chaperonin system. Inhibition was examined in the presence of these two orthogonal substrates in order to support that GroEL/ES inhibitors were on-target. To further support on-target effects against GroEL/ES, we counter-screened for inhibition of the native MDH and Rho enzymatic reporter reactions, where test compounds were added after the denatured MDH and Rho substrate enzymes were completely refolded by GroEL/ES.

In a further assay the target is T3, native MDH (Sus scrofa, UniProt P00346).
T3 sequence (P00346 25-338): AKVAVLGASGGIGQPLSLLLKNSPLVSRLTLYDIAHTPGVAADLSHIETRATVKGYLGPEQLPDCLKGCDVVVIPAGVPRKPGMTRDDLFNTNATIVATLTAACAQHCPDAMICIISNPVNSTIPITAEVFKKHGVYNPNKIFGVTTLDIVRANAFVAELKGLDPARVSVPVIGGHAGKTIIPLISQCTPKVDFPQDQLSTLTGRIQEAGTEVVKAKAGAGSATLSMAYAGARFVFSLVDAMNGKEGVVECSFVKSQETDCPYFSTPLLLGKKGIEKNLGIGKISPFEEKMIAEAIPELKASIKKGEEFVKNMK
In words: native MDH activity counter-screen in the presence of E. coli NfsB nitroreductase. The assay is classed as biochemical, pig. As for the experimental part: Evaluating compounds for inhibition in the GroEL/ES-mediated dMDH refolding assay and native MDH activity counter-screen in the presence of E. coli NfsB nitroreductase. These assays were performed nearly identically to those mentioned above, but with a couple distinct modifications. […] The remainder of the assay was conducted as in our standard protocol where no NfsB nitroreductase was present. […] Results presented represent the averages of IC50 values obtained from at least four replicates in each assay.
(In general: The purpose of a counterscreen is to sort out artefacts and off-target activity.)

Where [1] appears, read: with E. coli NfsB nitroreductase, read-out: Native MDH Activity w/NfsB IC50.
Setting [2] is: without NfsB nitroreductase, read-out: GroEL/ES-dMDH Refolding IC50.
Where [3] appears, read: GroEL only, no GroES or dMDH, read-out: GroEL ATPase IC50.

SMILES strings stand for the structures. Read-outs that look alike come from different tables or passages of the source.

T1 sequence (P0A6F5 2-548): as the sequence (P0A6F5 2-548) above

Consider `O=C(N/N=C/c1ccc(O)c2ncccc12)c1ccccc1` [Compound 5, N′-((8-hydroxyquinolin-5-yl)methylene)benzohydrazide], for which the figures for the IC50 against E. coli GroEL, on E. coli GroEL/ES and on native MDH (setting [1]) were over 250 µM, over 100 µM and over 56 µM, respectively.

As to `COc1ccc(C(=O)N/N=C/c2ccccc2)cc1` [Compound 37, N′-benzylidene-4-methoxybenzohydrazide], the IC50 is over 250 µM against E. coli GroEL, over 100 µM against E. coli GroEL/ES and over 56 µM on native MDH (setting [1]).

On to `O=C(N/N=C/c1ccc([N+](=O)[O-])o1)c1cccc(Oc2ccccc2)c1` [Compound 24, N′-((5-nitrofuran-2-yl)methylene)-3-phenoxybenzohydrazide], for which the values for the IC50 against E. coli GroEL, against E. coli GroEL/ES and on native MDH (setting [1]) were over 250 µM, 71 µM and over 56 µM, respectively.

As for `CN(C)c1ccc(C(=O)N/N=C/c2ccc([N+](=O)[O-])o2)cc1` [Compound 21, 4-(dimethylamino)-N′-((5-nitrofuran-2-yl)methylene)benzohydrazide], the IC50 was over 250 µM against E. coli GroEL and 26 µM on E. coli GroEL/ES (setting [2]). In addition, at E. coli GroEL/ES (standard dMDH and dRho refolding assays, no nitroreductase), the “GroEL/ES inhibition in words” value is “generally the most potent GroEL/ES inhibitors”.

In the case of `O=C(N/N=C/c1ccc([N+](=O)[O-])o1)c1ccncc1` [Compound 19, N′-((5-nitrofuran-2-yl)methylene)isonicotinohydrazide], the IC50 on E. coli GroEL was over 250 µM.

`O=C1CN(/N=C/c2ccc([N+](=O)[O-])o2)C(=O)N1` [Nitrofurantoin, reference compound]: the IC50 against E. coli GroEL is over 250 µM.

With `COc1ccc(C(=O)N/N=C/c2cccc3ccccc23)cc1` [Compound 33, 4-methoxy-N′-(naphthalen-1-ylmethylene)benzohydrazide], the IC50 against E. coli GroEL is over 250 µM; on E. coli GroEL/ES, over 100 µM; at native MDH (setting [1]) it was over 56 µM.

Turning to `O=C(N/N=C/c1ccc(O)c2ncccc12)c1cccc2ccccc12` [Compound 9, N′-((8-hydroxyquinolin-5-yl)methylene)-1-naphthohydrazide], the IC50 was over 250 µM against E. coli GroEL, 13 µM at E. coli GroEL/ES and over 56 µM on native MDH (setting [1]).

In the case of `O=[N+]([O-])c1ccc(O)c2ncccc12` [Nitroxoline, reference compound], the IC50 against E. coli GroEL is over 250 µM; against E. coli GroEL/ES, 50 µM; at native MDH (setting [1]), over 56 µM.

For `COc1ccc(C(=O)N/N=C/c2ccc(O)c3ncccc23)cc1` [Compound 1, N′-((8-hydroxyquinolin-5-yl)methylene)-4-methoxybenzohydrazide], the IC50 against E. coli GroEL is over 250 µM; on E. coli GroEL/ES it was 77 µM; on native MDH (setting [1]) it was over 56 µM.

As to `COc1ccc(C(=O)N/N=C/c2ccc([N+](=O)[O-])o2)cc1` [Compound 20, 4-methoxy-N′-((5-nitrofuran-2-yl)methylene)benzohydrazide], the results for the IC50 against E. coli GroEL and at E. coli GroEL/ES (setting [2]) were over 250 µM and 69 µM, respectively.

On to `O=C(N/N=C/c1ccc([N+](=O)[O-])o1)c1ccc(NS(=O)(=O)c2ccc(Br)cc2)cc1` [Compound 27, 4-bromo-N-(4-(2-((5-nitrofuran-2-yl)methylene)hydrazine-1-carbonyl)phenyl)benzenesulfonamide], for which the IC50 on E. coli GroEL is over 250 µM; at E. coli GroEL/ES, 36 µM; at native MDH, over 56 µM.

Consider `COc1ccc(C(=O)N/N=C/c2cccc3ncccc23)cc1` [Compound 31, 4-methoxy-N′-(quinolin-5-ylmethylene)benzohydrazide], for which the IC50 is over 250 µM on E. coli GroEL, over 100 µM on E. coli GroEL/ES and over 56 µM on native MDH (setting [1]).

On to `O=C(N/N=C/c1ccc(O)c2ncccc12)c1ccc(O)cc1` [Compound 7, 4-hydroxy-N′-((8-hydroxyquinolin-5-yl)methylene)benzohydrazide], for which the values for the IC50 at E. coli GroEL, against E. coli GroEL/ES and on native MDH (setting [1]) were over 250 µM, 43 µM and over 56 µM, respectively.

At E. coli GroEL, `O=C(N/N=C/c1ccc([N+](=O)[O-])o1)c1ccccc1` [Compound 18, N′-((5-nitrofuran-2-yl)methylene)benzohydrazide] displayed an IC50 of over 250 µM.

For `O=Cc1ccc([N+](=O)[O-])o1` [Compound 41, reference compound], the results for the IC50 at E. coli GroEL, on E. coli GroEL/ES and on native MDH (setting [1]) were over 250 µM, 78 µM and over 56 µM, respectively.

In the case of `O=C(N/N=C/c1ccc([N+](=O)[O-])o1)c1ccc(O)cc1` [Nifuroxazide, reference compound], the IC50 is over 250 µM against E. coli GroEL, over 100 µM at E. coli GroEL/ES and over 56 µM at native MDH.

`O=C(N/N=C/c1ccc([N+](=O)[O-])o1)c1ccccc1Oc1ccccc1` [Compound 23, N′-((5-nitrofuran-2-yl)methylene)-2-phenoxybenzohydrazide]: the IC50 on native MDH (setting [1]) is over 56 µM.

Take `O=C(N/N=C/c1ccc([N+](=O)[O-])o1)c1ccc(Cl)s1` [Compound 17, 5-chloro-N′-((5-nitrofuran-2-yl)methylene)thiophene-2-carbohydrazide]: the IC50 at E. coli GroEL (setting [3]) was over 250 µM; on E. coli GroEL/ES (setting [2]), 88 µM.

As to `O=C(N/N=C/c1ccc([N+](=O)[O-])o1)c1cccs1` [Compound 16, N′-((5-nitrofuran-2-yl)methylene)thiophene-2-carbohydrazide], the IC50 on E. coli GroEL (setting [3]) is over 250 µM.
